Reference: US20050214945A1, “Htlv-I tax induced killing of p53 null cancer cells” (Eastern Virginia Medical School, priority 2002, published 2005)

How the values were obtained:
REF52 cells [1] = test: Host cell reactivation assay (nucleotide excision repair capacity); type: cell-based, rat; conditions: Tax-expressing REF52 vs control GFP-expressing REF52; UV-damaged CAT reporter
Experimental: pSV2-CAT reporter plasmid was damaged ex vivo by exposure to 1000 j/m^2 of Uv-C light using a UV chamber-GS Gene Linker (Bio-Rad). REF52 and XP-A cells were transfected with 4 μg of UV-irradiated or non-irradiated pSV2-CAT plasmid together with an undamaged reporter plasmid (pMSV-Luc), and with or without Tax plasmid. Forty-eight hours after calcium phosphate transfection, cells were pelleted and resuspended in 250 μl of 250 mM Tris pH8.0. For the Luciferase assay, 25 μl of the total cellular extract was added to 50 μl of luciferase substrate. Luciferase activity was quantitated in a Luminometer. Cat assays were performed in parallel with the same cells as described (Semmes, O., et al., J. Virol. 66(12):7183-92 (1992)). Cat activity was normalized to luciferase activity of the same extract. Repair activity was calculated by setting normalized cat activity from cells cotransfected with non-irradiated pSV2-CAT to 100%. The repair activity of duplicate cells cotransfected with irradiated pSV2-CAT was reported as a percentage of that activity.
In examining the biological response of Tax-expressing cells to UV-induced DNA damage, efficient Nucleotide Excision Repair (NER) ability was tested. The Host Cell Reactivation Assay (HCRA) was used as a measure of NER capacity in Tax-expressing REF52 cells. […] Thus, Tax expression results in reduced NER capacity as measured by HCRA.

REF52 cells [2] = test: Cytokinesis block cell cycle progression assay; type: cell-based, rat
Experimental: (§1) Asynchronous cell cultures were seeded on coverslips and exposed to UV irradiation and allowed to recover for 1 hour. Cytochalasin B was added and the cultures incubated for 36 hours. The coverslips were fixed with paraformaldehyde/methanol and stained with propidium iodide. Slides were prepared and cell nuclei examined by microscopy. Bi-nucleus cells were considered dividing.
Next, the cell cycle response of Tax-expressing cells was measured. REF52 and REF+Tax cells were subjected to the cytokinesis block cell cycle arrest assay to determine the intactness of the damage-induced checkpoint. In this assay, asynchronous cells were exposed to UV and incubated with cytochalasin B one hour later. The cell population was examined 36 hours later and assessed for division events. […] In contrast REF52 cells exposed to UV light initiated cell cycle arrest and presented a predominately (>90%) mononuclear cell population. However, Tax-expressing REF52 cells, exposed to UV, presented nearly 75% of the population as binucleated cells indicating a failure to arrest in cell cycle in response to UV-induced DNA damage. For each data point, 1000 cells were analyzed.

p53 and p21 = test: Immunoblot of p53 and p21 after UV; type: cell-based, rat; conditions: UV-induced DNA damage; Tax-expressing and control REF52
Experimental: Approximately 2×10^6 cells were harvested and proteins extracted with […] Mammalian Protein Extraction Reagent (Pierce). 50 μl of 4× Laemmli buffer was added to the lysate. […] of the lysate was electrophoresed through a 10% SDS polyacrylamide gel. The proteins were electroblotted onto an Immobolin-P membrane (Millipore), and probed with the indicated primary antibody and the appropriate secondary alkaline phosphatase-conjugated antibody. Immunoreactivity was detected via Western Star chemiluminescence protein detection (Tropix).
To further analyze the p53 response in Tax-expressing cells, both Tax-expressing and control REF52 cells were examined for stabilization of steady-state p^53 and transient induction of p21. Since induction of p21 is a key event in p53-mediated cell cycle arrest, analysis of the p21 levels in Tax-expressing cells could determine the integrity of this signal. Tax-expressing and control cells were exposed to UV and harvested for western analysis pre-exposure and at eight hours and twenty four hours post exposure. […] Thus, one p53-dependent signal for cell cycle arrest, transient induction of p21, was intact.

REF52 and p53d cells = test: Flow cytometry cell cycle analysis (G1 checkpoint) after UV; type: cell-based; conditions: synchronized at G0, UV treatment, 20% serum; wild type or deleted p53 background
Experimental: For cell cycle analysis, cells were collected by gentle scraping following a rapid EDTA rinse and concentrated by low speed centrifugation and washed in 1×PBS, and fixed with cold 70% ethanol. Cells were stained with a PI solution (PBS 1×, RNase A [10 μg/ml], and Propidium Iodide [50 μg/ml]) followed by cell sorting analysis. FACS data acquired were analyzed by CellQuest software.
To determine whether the failure in cell cycle arrest was due to a failed G1 checkpoint, cells were synchronized at G0 by serum starvation. The cells were then cultured in 20% serum to stimulate return to cell cycle following UV treatment. Cell cycle was determined by total DNA content as described above. […] This was true for either a wild type or deleted p53 background. Therefore, the failure in cell cycle arrest is due at least in part to a failed G1 arrest.

REF52 cells [3] = test: UV-induced apoptosis, Vybrant Apoptosis Assay; type: cell-based, rat; conditions: Tax-expressing REF52 following UV exposure
Experimental: (§2) Tax-expressing cells were treated with different UV doses (0, 20 and 50 j/m^2) and assessed at different time points post-transduction (4, 8, 12 and 24 hrs). Cells were separated into living, necrotic or apoptotic populations using the triple source fluorescent labeling, Vybrant Apoptosis Assay kit (Molecular Probes) according to the manufacturer's recommendations.
In addition to repair, at least two key events occured in the UV-induced cellular DNA damage response. These are initiation of cell cycle arrest and induction of apoptosis. The ability of Tax-expressing REF52 cells to undergo cell cycle arrest and apoptosis was assessed. Tax-expressing and control cells were subjected to UV irradiation and examined for apoptotic events and cell cycle profile. Prior to exposure to UV, the percent of non-apoptotic, apoptotic and necrotic cells were examined. The three populations were identified using the Vybrant assay. […] The same results were seen using several Tax-expressing cells including GM00010B (data not shown).

REF52 cells [4] = test: Global nucleotide excision repair assay (unscheduled DNA synthesis, BrdU); type: cell-based, rat; conditions: G1 synchronized cells, UV 20 j/m^2, BrdU
Experimental: REF52 cells were seeded onto glass coverslips and transduced to express Tax at 25% efficiency. Sub-confluent Tax-expressing REF52 cells were cultured in 0.5% serum for 48 hrs, to synchronize at G0, prior to irradiation. The cells were released from G0 with addition of complete medium. At four hours post-release, the cells were irradiated with UV light (20 j/m^2) using a UV chamber-GS Gene Linker (Bio-Rad) and incubated for 30 min with 10 μM BrdU containing medium. The cells were then washed 4× with PBS and fixed in 4% paraformaldehyde. Cells were permeabilized with 2 minutes incubation in 100% methanol and washed 4× with PBS. The prepared cells were then reacted with both anti-Tax and anti-BrdU in PBS (containing 2% BSA). Primary antibodies were removed by washing 4× with 1% Tween 20 in PBS (PBS-Tween). Secondary conjugated antibodies were reacted for one hour at room temperature (RT). The cells were then washed with PBS-Tween and the slips were inverted onto slides with Vecta Shield (Vector Laboratories, CA). Incorporation of BrdU into the nucleus of cells at G1 corresponded to unscheduled repair synthesis.
A failure in damage-induced cell cycle arrest would result in reduced repair efficiency and could explain the Tax-associated NER deficiency. […]

p53−/− cells [5] = test: Percent surviving cells after sublethal UV; type: cell-based; conditions: 24 hours after treatment
Experimental: (§3) It was reasoned that if Tax-expressing cells display impaired damage response in a p53 independent manner then cells both deleted for p53 and expressing Tax would be more prone to apoptotic cell death in response to UV. To test this hypothesis, the apoptotic response of both Tax-expressing and control p53−/− cells was examined. Tax-expressing and control cells were exposed to sublethal doses of UV and examined for percent surviving cells 24 hours after treatment.

[6] = tested on: p53 mutant background (HeLa); test: Percent surviving cells after sublethal UV; type: cell-based; conditions: 24 hours after treatment, vs control cells
Experimental: as §3

p53+/+ cells (REF52) = test: Percent surviving cells after sublethal UV; type: cell-based, rat; conditions: 24 hours after treatment, vs control cells
p53 = test: Nuclear accumulation of p53 after UV (immunostaining); type: cell-based, rat; conditions: Tax-expressing REF52 in response to UV damage
Text: A key player in initiation of the UV-repair response and activation of cell cycle arrest is p53. Activation of p53 is signaled by an accumulation of P53 in the nucleus of cells exposed to UV light. To examine whether Tax-expressing cells display this early p53 response, REF52 cells were transduced with suboptimal viral titers to produce an estimated 50% transduction efficiency. The cells were exposed to UV and examined for nuclear expression of p53.

[7] = tested on: Hela cells and p53 deleted cell line; test: Cytokinesis block cell cycle progression assay in p53 repressed/deleted cells; type: cell-based; conditions: exposed to UV, cytochalasin B, 36 hours; partial (25%) and 100% transduction
Experimental: as §1
To test this hypothesis, the cell cycle arrest response was examined in Tax-expressing and control p53−/− cells. Tax-expressing and control Hela cell groups were subjected to the cytokinesis block cell cycle progression assay as described above. Each cell group was exposed to UV and incubated with cytochalasin B one hour later. The cells were examined after 36 hours for the presence of binucleated dividing cells. Hela cells transduced to express Tax at 25% efficiency. Tax-expressing Hela cells were identified by immunofluorescence using anti-Tax mouse monoclonal antibody and FITC-conjugated anti-mouse secondary antibody. The nuclei were stained with propidium iodide. Hela and Tax-expressing Hela formed binuclei indicating normal division. […] In experiments using 100% transduction of Tax, 1000 cell events were counted.

p53−/− cells [8] = test: UV-induced apoptosis, Vybrant Apoptosis Assay; type: cell-based; conditions: UV 20 and 50 J/m^2, 12 and 24 hours
Experimental: as §2
The early apoptotic response of Tax-expressing p53−/− cells was also observed. In this series of experiments the cell groups were exposed to 0 J/m^2, 20 J/m^2 and 50 J/m^2 and apoptosis measured at 12 and 24 hours (FIG. 7). […] This level of UV-induced apoptosis is equivalent to that seen in cells defective in NER (FIG. 3).

## Tax
REF52 cells [1]
  NER capacity: significantly reduced
REF52 cells [2]; exposed to UV, cytochalasin B, examined 36 hours later, 1000 cells per data point
  binucleated cells: ~75%
REF52 cells [2]; unexposed to UV
  binucleated cell profile without UV: same profile as in the absence of Tax
p53 and p21
  steady-state protein levels of p53: stabilization of steady-state protein levels of p53
REF52 and p53d cells
  percentage of cells leaving G1: consistent and significant increase
REF52 cells [3]
  apoptotic response to DNA damage: normal apoptotic response
REF52 cells [4]
  UV-induced unscheduled DNA synthesis: indistinguishable from control cells
p53−/− cells [5]
  cell death in response to UV exposure: significant cell death
[6]
  percent of surviving cells: no decreased percent of surviving cells
p53+/+ cells (REF52)
  percent of surviving cells: no decreased percent of surviving cells
p53
  nuclear accumulation of P53: strong nuclear accumulation of P53
[7]
  percent of binucleated cells: > 72%
p53−/− cells [8]
  apoptosis: Significant apoptosis
